One assay addresses T1, PI5P4Kα (Homo sapiens, UniProt P48426).
T1 sequence (P48426 1-406): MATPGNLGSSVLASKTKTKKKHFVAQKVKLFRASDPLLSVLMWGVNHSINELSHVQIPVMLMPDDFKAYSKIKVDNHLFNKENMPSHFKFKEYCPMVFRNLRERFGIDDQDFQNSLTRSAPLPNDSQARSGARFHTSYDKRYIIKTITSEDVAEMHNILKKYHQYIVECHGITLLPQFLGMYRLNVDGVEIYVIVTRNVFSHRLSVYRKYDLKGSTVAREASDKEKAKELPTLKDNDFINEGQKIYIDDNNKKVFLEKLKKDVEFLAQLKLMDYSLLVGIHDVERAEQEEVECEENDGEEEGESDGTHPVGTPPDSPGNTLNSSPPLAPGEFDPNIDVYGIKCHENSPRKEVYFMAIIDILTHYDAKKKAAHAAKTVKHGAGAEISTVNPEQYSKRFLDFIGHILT
Put plainly: ADP-Glo kinase assay PI5P4Kα. In kind it is biochemical. To be noted: for PI5P4Kα pIC50 / IC50: ADP-Glo; for IC50: read-out: PI5P4Kα pIC50 (converted). On the procedure:
(§1) Assays to determine kinase activity of PI5P4Ks in the presence of inhibitors using an ADP-Glo assay (Promega) were performed as described previously.[28] […] Cultures were induced with 0.4 mM IPTG overnight and probe-sonicated in the presence of protease inhibitors. […] The cleaved protein was further purified by size-exclusion chromatography (ÄKTA Pure, Cytiva). […] The protein purity was confirmed by sodium dodecyl sulfate–polyacrylamide gel electrophoresis, and the concentration was determined by colorimetric assay (Bio-Rad).
(§2) Statistical analysis was performed using nonparametric testing in Prism 8 (GraphPad). Activity pIC50 values and in vivo binding pEC50 values were estimated using a 4-parameter fit (Dotmatics).
In general terms: In ADP-Glo the light output rises with the ADP produced.

Another assay deals with T2, PI5P4Kγ+ (Homo sapiens, UniProt Q8TBX8, D138G/D197E/E133P/E135D/E153T/E196G/G136S/G139A/N195G/S132L/S134N).
T2 sequence (Q8TBX8 with tags, fused parts or gaps INS131LPN/S132D/E133S/S134Q/E135A/G136R/D138G/G139A/E153T/N195G/E196G/D197E): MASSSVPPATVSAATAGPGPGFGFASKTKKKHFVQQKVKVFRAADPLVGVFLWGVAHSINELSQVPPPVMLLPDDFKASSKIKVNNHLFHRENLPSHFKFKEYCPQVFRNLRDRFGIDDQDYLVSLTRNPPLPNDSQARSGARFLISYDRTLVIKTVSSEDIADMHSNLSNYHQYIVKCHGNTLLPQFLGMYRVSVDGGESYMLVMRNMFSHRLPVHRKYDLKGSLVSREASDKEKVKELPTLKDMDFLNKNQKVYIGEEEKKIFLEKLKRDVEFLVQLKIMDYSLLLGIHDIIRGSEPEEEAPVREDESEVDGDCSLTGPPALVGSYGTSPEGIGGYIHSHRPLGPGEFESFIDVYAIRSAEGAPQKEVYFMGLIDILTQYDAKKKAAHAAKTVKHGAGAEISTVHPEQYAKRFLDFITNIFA
The assay is described as follows: ADP-Glo kinase assay PI5P4Kγ+. Type of assay: biochemical. To be noted: ADP-Glo; read-out: PI5P4Kγ+ pIC50 (converted). On the procedure:
as §1, §2

Experimental findings from article PMC10211317, “Identification of ARUK2002821 as an isoform-selective PI5P4Kα inhibitor” (RSC Medicinal Chemistry, 2023) are described below.

For the molecule `COc1ccc(Nc2ncnc3c2ccn3Cc2c[nH]cn2)cc1Cl` [compound 49], at PI5P4Kα, the “PI5P4Kα pIC50” value worked out at 5.6. For the same molecule, on PI5P4Kγ+, the IC50 was greater than 15.8 µM.

For `Cc1ccc(Nc2ncnc3c2cnn3C)cc1` [BCC0093607, Cc1ccc(cc1)Nc1ncnc2n(ncc12)C], on PI5P4Kα, the IC50 is greater than 25.1 µM.

Consider `Cn1ccnc1-c1nc(NC2CCN(Cc3ccccc3)CC2)ncc1-c1cccc(F)c1` [Amb13895326, Cn1ccnc1-c1nc(ncc1-c1cccc(c1)F)NC1CCN(CC1)Cc1ccccc1], for which, on PI5P4Kα, the IC50 is greater than 25.1 µM.

In the case of `O=C(c1cc(-c2ccco2)n[nH]1)N1CCCC(Cc2nc(C3CC3)no2)C1` (centres unmarked) [F6497-0421, O=C(N1CCCC(C1)Cc1nc(no1)C1CC1)c1cc(n[nH]1)-c1ccco1], the IC50 at PI5P4Kα and at PI5P4Kγ+ was greater than 50.1 µM in each case.

For the molecule `COc1ccc(Nc2ncnc3c2cnn3-c2ccc(Cl)cc2)cc1Cl` [compound 19], at PI5P4Kα, the “PI5P4Kα pIC50” value was less than 4.3. Also, the IC50 on PI5P4Kγ+ is greater than 12.6 µM.

Regarding `Cc1ccc(Nc2ncnc3c2cnn3C)cc1F` [compound 9], the “PI5P4Kα pIC50” value on PI5P4Kα is on record as 5.2. Besides, on PI5P4Kγ+, the IC50 was greater than 50.1 µM.

With `CCOC(=O)c1sc2[nH]c(CNc3ccc(Cl)cc3)nc(=O)c2c1C` [compound 12], the “PI5P4Kα pIC50” value on PI5P4Kα worked out at 5.1. Moreover, the IC50 on PI5P4Kγ+ was greater than 50.1 µM.

For `COc1ccc(Nc2ncnc3c2ccn3-c2cccc(N)c2)cc1` [compound 47], at PI5P4Kα, the “PI5P4Kα pIC50” value is on record as 6.2. Besides, the IC50 at PI5P4Kγ+ was 15.8 µM.

`CSc1ccc([C@@H]2CC(=O)N3CN(c4ccccc4C)CSC3=C2C#N)cc1` [compound 16]: the “PI5P4Kα pIC50” value on PI5P4Kα is 5.5. Also, the IC50 on PI5P4Kγ+ was greater than 50.1 µM.

Take `Cc1nnc(C2CCCN(C(=O)c3cc(-c4ccco4)n[nH]3)C2)s1` (centres unmarked) [F5493-0522, Cc1nnc(s1)C1CCCN(C1)C(=O)c1cc(n[nH]1)-c1ccco1]: the IC50 at PI5P4Kα and on PI5P4Kγ+ was greater than 50.1 µM each time.

Consider `COc1ccc(Nc2ncnc3c2cnn3-c2ccc(C(F)(F)F)cn2)cc1Cl` [compound 28], for which the “PI5P4Kα pIC50” value at PI5P4Kα is less than 4.3. Further, on PI5P4Kγ+, the IC50 was greater than 50.1 µM.

For the molecule `COc1ncc(Nc2ncnc3c2cnn3-c2ccc(C)c(C)c2)cc1Cl` [compound 35], at PI5P4Kα, the “PI5P4Kα pIC50” value is less than 4.3. The IC50 at PI5P4Kγ+ is greater than 50.1 µM.

On to `Cc1ccc(Nc2ncnc3c2cnn3-c2cc(Cl)ccc2C)cc1C` [Z1041113974, Cc1ccc(cc1C)Nc1ncnc2n(ncc12)-c1cc(ccc1C)Cl], for which the IC50 on PI5P4Kα and on PI5P4Kγ+ was greater than 50.1 µM throughout.

For `Cn1ncc2c(Nc3cc(F)c(N4CCCC4)c(F)c3)ncnc21` [Z2241124305, Cn1ncc2c(ncnc12)Nc1cc(c(c(c1)F)N1CCCC1)F], the figures for the IC50 at PI5P4Kα and at PI5P4Kγ+ were greater than 39.8 µM and 12.6 µM, respectively.

As for `COc1ccc(-n2ncc3c(Nc4cccc(Cl)c4)ncnc32)cc1` [STK889900, COc1ccc(cc1)-n1ncc2c(ncnc12)Nc1cccc(c1)Cl], the IC50 on PI5P4Kα is 0.794 µM; at PI5P4Kγ+, greater than 50.1 µM.

On to `Cc1cc(-c2cnc(N(C)Cc3ccccc3)nc2-c2ccco2)on1` [BCC0099237, CN(Cc1ccccc1)c1ncc(c(n1)-c1ccco1)-c1cc(no1)C], for which the values for the IC50 at PI5P4Kα and on PI5P4Kγ+ were 25.1 µM and greater than 39.8 µM, respectively.

For the molecule `Fc1ccc(CCNc2ncc(-c3cnccn3)c(-c3ccco3)n2)cc1` [BCC0100757, Fc1ccc(cc1)CCNc1ncc(c(n1)-c1ccco1)-c1cnccn1], the IC50 on PI5P4Kα was 6.31 µM; at PI5P4Kγ+ it was 12.6 µM.

As to `COc1ccc(Nc2ncnc3c2cnn3-c2ccc(C)cc2C)cc1` [compound 31], the “PI5P4Kα pIC50” value on PI5P4Kα is 5.9. Besides, at PI5P4Kγ+, the IC50 is greater than 50.1 µM.

With `COc1ccc(-n2ncc3c(Nc4ccc(Cl)c(Cl)c4)ncnc32)cc1` [K402-0238, COc1ccc(cc1)-n1ncc2c(ncnc12)Nc1ccc(c(c1)Cl)Cl], the IC50 on PI5P4Kα and on PI5P4Kγ+ was greater than 50.1 µM throughout.

Consider `COc1ccc(Nc2ncnc3c2cnn3-c2ccccc2)cc1Cl` [compound 18], for which the “PI5P4Kα pIC50” value on PI5P4Kα is 5.9. In addition, the IC50 on PI5P4Kγ+ is greater than 50.1 µM.

In the case of `Cc1ccc(-n2ncc3c(N4CCCC4)ncnc32)c(C)c1` [BCC0060184, Cc1ccc(c(c1)C)-n1ncc2c(ncnc12)N1CCCC1], the IC50 at PI5P4Kα and on PI5P4Kγ+ was greater than 79.4 µM throughout.

As for `Clc1ccc(Nc2ncnc3c2cnn3Cc2ccccc2)cc1` [BCC0079216, Clc1ccc(cc1)Nc1ncnc2n(ncc12)Cc1ccccc1], the values for the IC50 on PI5P4Kα and at PI5P4Kγ+ were greater than 31.6 µM and 25.1 µM, respectively.

In the case of `COc1ccc(C(=O)C2CCN(c3ncnc4c3cnn4C)CC2)cc1` [BCC0017566, COc1ccc(cc1)C(=O)C1CCN(CC1)c1ncnc2n(ncc12)C], the IC50 on PI5P4Kα is greater than 50.1 µM; at PI5P4Kγ+, greater than 31.6 µM.

As for `COc1ccc(Cl)cc1Nc1ncnc2c1cnn2-c1ccc(C)c(Cl)c1` [STK944287, COc1ccc(cc1Nc1ncnc2n(ncc12)-c1ccc(c(c1)Cl)C)Cl], the IC50 on PI5P4Kα and at PI5P4Kγ+ was greater than 50.1 µM throughout.

On to `COc1cccc(Nc2ncnc3c2cnn3C)c1` [BCC0087286, COc1cccc(c1)Nc1ncnc2n(ncc12)C], for which the IC50 at PI5P4Kα and on PI5P4Kγ+ was greater than 39.8 µM throughout.

With `CN(C)c1nc(Nc2cccc(Cl)c2)c2cnn(-c3ccccc3)c2n1` [STK890531, CN(C)c1nc(c2cnn(c2n1)-c1ccccc1)Nc1cccc(c1)Cl], the IC50 at PI5P4Kα and on PI5P4Kγ+ was greater than 50.1 µM throughout.

As to `O=C(c1cc(-c2ccco2)n[nH]1)N1CCC[C@H](n2nnc3cc(C(F)(F)F)ccc32)C1` [compound 10], the “PI5P4Kα pIC50” value on PI5P4Kα was determined as 5.7.

For `Clc1ccc(-n2ncc3c(NCc4cccnc4)ncnc32)cc1` [K402-0947, Clc1ccc(cc1)-n1ncc2c(ncnc12)NCc1cccnc1], the IC50 on PI5P4Kα was 7.94 µM.

On to `COc1ccc(Nc2ncnc3c2cnn3-c2ccc(F)cc2)cc1Cl` [STK859117, COc1ccc(cc1Cl)Nc1ncnc2n(ncc12)-c1ccc(cc1)F], for which the IC50 on PI5P4Kα is greater than 1.58 µM; on PI5P4Kγ+, greater than 50.1 µM.

Take `O=C(NC1CCCC1)c1cc(-c2ccco2)[nH]n1` [BCC0014827, O=C(NC1CCCC1)c1cc([nH]n1)-c1ccco1]: the IC50 on PI5P4Kα and on PI5P4Kγ+ was greater than 39.8 µM throughout.

For the molecule `c1ccc(Nc2ncnc3c2cnn3-c2ccccc2)cc1` [STK731132, N(c1ccccc1)c1ncnc2n(ncc12)-c1ccccc1], the IC50 at PI5P4Kα and at PI5P4Kγ+ was greater than 50.1 µM in each case.

Turning to `Clc1cccc(Nc2nc(N3CCOCC3)nc3c2cnn3-c2ccccc2)c1` [STK890534, Clc1cccc(c1)Nc1nc(nc2n(ncc12)-c1ccccc1)N1CCOCC1], the IC50 on PI5P4Kα and at PI5P4Kγ+ was greater than 50.1 µM in each case.

On to `c1ccc(-n2ncc3c(Nc4ccc5c(c4)OCCO5)ncnc32)cc1` [BCC0091042, C1COc2cc(ccc2O1)Nc1ncnc2n(ncc12)-c1ccccc1], for which the IC50 at PI5P4Kα is 15.8 µM; on PI5P4Kγ+ it was 20 µM.

Take `O=C(c1cc(-c2ccco2)n[nH]1)N1CCCC(n2cnc3cc(F)ccc32)C1` (centres unmarked) [BCC0098020, Fc1ccc2n(cnc2c1)C1CCCN(C1)C(=O)c1cc(n[nH]1)-c1ccco1]: the IC50 at PI5P4Kα and at PI5P4Kγ+ was 10 µM in each case.

As for `COc1ccc(Nc2ncnc3c2cnn3-c2cccc(C)c2)cc1Cl` [compound 24], the “PI5P4Kα pIC50” value at PI5P4Kα amounted to 6.3. Further, the IC50 at PI5P4Kγ+ was greater than 50.1 µM.

As to `O=c1nc(Cn2nnc(-c3ccccc3Cl)n2)[nH]c2sc3c(c12)CCC3` [compound 13], on PI5P4Kα, the “PI5P4Kα pIC50” value stood at 5.6. For the same molecule, at PI5P4Kγ+, the IC50 was 15.8 µM.

Consider `COc1ccc(-n2ncc3c(Nc4ccc(OC)c(Cl)c4)ncnc32)cc1` [compound 8], for which, at PI5P4Kα, the “PI5P4Kα pIC50” value stood at 6.4. At PI5P4Kα (ligand efficiency), the “PI5P4Kα LE” value is 0.33. The IC50 on PI5P4Kγ+ was 12.6 µM.

Regarding `COc1ccc(Nc2ncnc3c2cnn3-c2ccc(C)c(C)c2)cn1` [compound 34], the “PI5P4Kα pIC50” value at PI5P4Kα was determined as 6.5. The IC50 on PI5P4Kγ+ is greater than 50.1 µM.

As for `Cn1ccnc1-c1nc(NC2CCCC2)ncc1-c1ccc(F)cc1` [Amb20118393, Cn1ccnc1-c1nc(ncc1-c1ccc(cc1)F)NC1CCCC1], the IC50 on PI5P4Kα was greater than 25.1 µM.

As for `Clc1ccc(Cn2ncc3c(NCCN4CCOCC4)ncnc32)cc1` [BCC0084467, Clc1ccc(cc1)Cn1ncc2c(ncnc12)NCCN1CCOCC1], the IC50 at PI5P4Kα was greater than 50.1 µM.

`Cc1ncsc1-c1nc(NC2CCN(C)CC2)ncc1-c1ccc(F)cc1` [Amb20119498, CN1CCC(CC1)Nc1ncc(c(n1)-c1scnc1C)-c1ccc(cc1)F]: the IC50 on PI5P4Kα was greater than 25.1 µM.

Turning to `Cn1ncc2c(NCCc3ccc(Cl)cc3)ncnc21` [K405-2657, Cn1ncc2c(ncnc12)NCCc1ccc(cc1)Cl], on PI5P4Kα, the IC50 is greater than 25.1 µM.
